Target: T1, FicD^WT (Homo sapiens, UniProt Q9BVA6)
T1 construct: soluble ER luminal domain (residues 105 to 458) of wild-type human FicD; 6xHis-Sumo (N, cleaved yes); made in house; host or cells: Rosetta(DE3) E. coli
T1 sequence (Q9BVA6 105-458): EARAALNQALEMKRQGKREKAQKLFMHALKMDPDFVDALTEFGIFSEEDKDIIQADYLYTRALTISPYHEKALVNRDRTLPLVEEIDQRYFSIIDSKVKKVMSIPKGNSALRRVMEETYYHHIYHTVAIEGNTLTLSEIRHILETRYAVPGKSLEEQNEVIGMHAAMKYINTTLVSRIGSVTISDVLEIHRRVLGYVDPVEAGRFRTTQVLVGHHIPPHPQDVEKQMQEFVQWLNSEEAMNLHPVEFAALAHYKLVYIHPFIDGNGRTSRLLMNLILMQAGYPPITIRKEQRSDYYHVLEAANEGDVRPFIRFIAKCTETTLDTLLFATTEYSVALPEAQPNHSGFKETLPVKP
Test: Total (intact) mass analysis of FicD^WT incubated with FPP
Settings: 50uM FPP, 5mM MgCl2
From the text: To reveal the mechanism of FicD inhibition by FPP, we leveraged the FicD^E234G mutant for structural studies. We soaked FPP into crystals of the FicD^E234G variant and solved the ligand-bound structure (Fig. 5 A and B). […] The diphosphate group of FPP closely overlapped with the ADP diphosphate when superimposed with a FicD^E234G-ADP structure (Fig. 5 A, Left), and the hydrophobic isoprenyl groups of FPP overlap with the nucleoside in the active site binding pocket (Fig. 5 A, Right). The FPP diphosphate binds directly to the side chains of N369, R371, with the sidechain of D367 coordinating the Mg^2+ (Fig. 5B). These interactions mimic those observed between ADP/ATP and FicD ([26]). […] As previously noted, only GPP and FPP could bind to and inhibit FicD, but analogs of the isoprenoid-pyrophosphate metabolites (geraniol, GMP, farnesol, FMP, DMAPP, and MVAPP) could not (Fig. 2 B–D). Together, these observations indicate both the pyrophosphate head and the long isoprenoid tail of GPP/FPP contribute to the binding with FicD. […]
Intact mass analysis of proteins was performed by the UT Southwestern Proteomics Core. Intact protein samples were analyzed by LC/MS, using a Sciex X500B QTOF mass spectrometer operating in positive ion mode, coupled to an Agilent 1290 Infinity II HPLC. […]

With CC(C)=CCC/C(C)=C/CC/C(C)=C/COP(=O)(O)OP(=O)(O)O [FPP, farnesyl-pyrophosphate] the “mass shift associated with putative FPP automodification” value was “no mass shift”.
